Data reported in PMC12179625, “Development of an LC-MS/MS method for quantification of colistin and colistin methanesulfonate in human plasma and its application to stability studies and therapeutic drug monitoring” (Journal of Mass Spectrometry and Advances in the Clinical …, 2025).
Like-named read-outs stand apart in the source and are kept apart here. Blank lines part the entries; values can stand above or below the compound they belong to. Where a SMILES comes first, the peptide text is derived from it. Bridges are numbered along the chain shown (N, C = ends). [ ]: non-standard residue; d: D form. The star is where a group is joined. Heptanoyl(6-Me) = CC(C)CCCCC(=O)*; X1 = CC[C@H](C)CCCCC(=O)*; Dab = NCC[C@H](N)C(=O)O

Assays:
[1] = Pharmacokinetics / TDM of CMS and colistin in patient plasma; format: in vivo, human; conditions: for AUC(0-t): 150 mg CBA
Protocol: (§1) The SPE column was activated by using 1 mL of methanol followed by 2 mL of ultrapure water. Subsequently, 200 μL of either calibration standard samples, QC samples, or patient plasma samples were mixed with 100 μL of IS working solution and 700 μL of 1.43 % ammonia, This step is to ensure that the solution is in a non-acidic environment. This mixture was thoroughly vortexed to ensure homogeneity. The mixed samples were then loaded onto the Welch BRP SPE columns. After sequentially washing the column with a total of 4 mL of 1 % ammonia, the analytes were eluted twice with 200 μL of […] (30:70, v/v) containing 4 % formic acid. Ultimately, 400 μL total eluate was collected and analyzed by LC-MS/MS.
The concentration of CMS was determined by calculating the difference between the concentration of total colistin after complete in vitro conversion and the concentration of free colistin in vivo. In vitro conversion of CMS was performed by sulfuric acid hydrolysis. Samples were processed as follows: 25 μL of 1 mol/L H2SO4 was added to a tube containing 200 μL of patient plasma sample and 100 μL of IS working solution, acidified at room temperature on a shaker for 1 h, and then 50 μL of 1 mol/L NaOH was added to neutralize the acid hydrolysis to maintain the pH of the final solution in the range of 7.0–7.5. After vortex mixing, 625 μL of 1.43 % ammonia solution was added and mixed thoroughly. After this conversion process, the concentration of total colistin was determined as free colistin described above.
The study included three patients infected with carbapenem-resistant Gram-negative bacteria. The patients provided informed consent, and the research project was carried out following the regulations of the Ethics Committee (Ethical approval number: TJ-IRB20220737) of Tongji Medical College, Huazhong University of Science and Technology. The physician prescribed a weight-based dosing regimen with a 300 mg loading dose of colistin base activity (CBA) and a maintenance dose of 150 mg CBA. The sample collection for this session took place during the administration of the fourth dose. […] Blood samples were collected by EDTA tubes and placed on ice and transported to the lab within 2 h. The samples were centrifuged at a speed of 1000 g for 10 min at 4°C and the supernatant was stored at −20 °C for subsequent sample preparation.
Pharmacokinetic parameters, including area under the concentration–time curve from 0 to the last measurable time point (AUC0-t) and from 0 to infinity (AUC0-∞), peak concentration (Cmax), time to reach peak concentration (Tmax), elimination half-life (t1/2), apparent volume of distribution (V), apparent total clearance (CL), and mean residence time (MRT0-∞) were calculated using DAS 2.0 (Shanghai University of TCM, China).

[2] = cited from earlier work
Protocol: The concentration–time curves and PK parameters of colistin and CMS are shown in Fig. 6 and Table 5, respectively. A total of three patients treated with CMS for carbapenem-resistant Gram-negative bacterial infections were included in this study (Ethical approval number: TJ-IRB20220737). The measured trough concentrations of colistin (Cmin) ranged from 0.97 μg/mL to 2.84 μ g/mL, and the average Cmin was 1.61 ± 1.06 μ g/mL.

[3] = Autosampler stability of processed colistin samples; format: physicochemical; conditions: autosampler 4 °C, accuracy, LC-MS/MS, mean ± SD, n = 3
Protocol: as §1
(§2) This study investigated the stability of colistin A and colistin B during the assay process, including the stability of plasma samples at room temperature for 24 h, the stability through three cycles of repeated freeze–thaw from −80 °C to room temperature, the stability during storage at −80 °C for three months, and the autosampler stability of processed samples at 4°C for 24 h. Three parallel samples were prepared for each condition. If the accuracy of the samples under storage conditions is within 85 % to 115 %, the stability is considered acceptable.

[4] = Stability of colistin A and colistin B in plasma samples; format: in vitro ADME; conditions: spiked human plasma, accuracy vs theoretical concentration, LC-MS/MS, mean ± SD, n = 3; for −80 °C freeze–thaw 3 times: three freeze–thaw cycles −80 °C to room temperature
Protocol: The calibration standard samples and QC samples were both obtained by diluting the corresponding working solution with blank plasma at a ratio of 1:19. The concentrations of the calibration standard samples were 0.10, 0.25, 0.50, 1.0, 2.5, 5.0, 8.0 and 10 μg/mL while the concentrations of the QC samples were 0.10 (LLOQ), 0.30 (LQC), 2.0 (MQC), 7.5 (HQC), and 30 (DQC) μg/mL.
as §1, §2

[5] = CMS infusion, 150 mg CBA maintenance, fourth dose, plasma, LC-MS/MS, patient 1
[6] = CMS infusion, 150 mg CBA maintenance, fourth dose, plasma, LC-MS/MS, patient 2
[7] = CMS infusion, 150 mg CBA maintenance, fourth dose, plasma, LC-MS/MS, patient 3
[8] = SPE eluate (acetonitrile 30:70 with 4 % formic acid) of HQC 7.5 μg/mL plasma
[9] = SPE eluate (acetonitrile 30:70 with 4 % formic acid) of LQC 0.30 μg/mL plasma

CL (apparent total clearance) ([1]; human, in vivo, iv, SD): 6.87 ± 1.38 L/h
Tmax ([1]; human, in vivo, iv, SD): 1.33 ± 0.58 h
Vz (apparent volume of distribution) ([1]; human, in vivo, iv, SD): 14.11 ± 2.39 L
t1/2 (elimination half-life) ([1]; human, in vivo, iv, SD): 1.50 ± 0.57 h
Compound: colistin methanesulfonate [CMS]
Tmax ([2]; human, in vivo): 1 h
half-life ([2]; human, in vivo): 2.0 ± 0.12 h

Compound: CC[C@H](C)CCCCC(=O)N[C@@H](CCN)C(=O)N[C@H](C(=O)N[C@@H](CCN)C(=O)N[C@H]1CCNC(=O)[C@H]([C@@H](C)O)NC(=O)[C@H](CCN)NC(=O)[C@H](CCN)NC(=O)[C@H](CC(C)C)NC(=O)[C@@H](CC(C)C)NC(=O)[C@H](CCN)NC1=O)[C@@H](C)O [Colistin, colistin] (X1-[Dab]T[Dab][Dab][Dab][dL]L[Dab][Dab]T; lactam 4-C)
AUC0-12h [1, 5]: 18730 ng·h/mL
AUC0-24h [1, 5]: 37480 ng·h/mL
AUC0-∞ [1, 5]: 31440 ng·h/mL
CL (apparent total clearance) [1, 5]: 4.77 L/h
Cmax [1, 5]: 2080 ng/mL
Cmin [1, 5]: 970 ng/mL
Css [1, 5]: 1560 ng/mL
MRT0-∞ (mean residence time) [1, 5]: 13.34 h
Tmax [1, 5]: 2.00 h
Vz (apparent volume of distribution) [1, 5]: 62.61 L
t1/2 (elimination half-life) [1, 5]: 9.09 h
AUC0-12h [1, 6]: 43030 ng·h/mL
AUC0-24h [1, 6]: 85740 ng·h/mL
AUC0-∞ [1, 6]: 105170 ng·h/mL
CL (apparent total clearance) [1, 6]: 1.43 L/h
Cmax [1, 6]: 4520 ng/mL
Cmin [1, 6]: 2840 ng/mL
Css [1, 6]: 3570 ng/mL
MRT0-∞ (mean residence time) [1, 6]: 22.04 h
Tmax [1, 6]: 2.00 h
Vz (apparent volume of distribution) [1, 6]: 30.93 L
t1/2 (elimination half-life) [1, 6]: 15.03 h
AUC0-12h [1, 7]: 18490 ng·h/mL
AUC0-24h [1, 7]: 37080 ng·h/mL
AUC0-∞ [1, 7]: 25180 ng·h/mL
CL (apparent total clearance) [1, 7]: 5.96 L/h
Cmax [1, 7]: 2450 ng/mL
Cmin [1, 7]: 1040 ng/mL
Css [1, 7]: 1550 ng/mL
MRT0-∞ (mean residence time) [1, 7]: 10.86 h
Tmax [1, 7]: 3.00 h
Vz (apparent volume of distribution) [1, 7]: 49.04 L
t1/2 (elimination half-life) [1, 7]: 5.71 h
AUC0-24h ([1]; first of the three patients): 37430 ng·h/mL
Css,avg ([1]; first of the three patients): 1560 ng/mL
AUC(0-t) ([1]; human, in vivo, iv, patients on CMS infusion (300 mg CBA loading, 150 mg CBA maintenance), fourth dose, plasma, SPE LC-MS/MS, DAS 2.0, mean ± SD of 3 patients, SD, read-out: AUC0-12h): 26800 ± 14100 ng·h/mL
AUC(0-t) ([1]; human, in vivo, iv, patients on CMS infusion (300 mg CBA loading, 150 mg CBA maintenance), fourth dose, plasma, SPE LC-MS/MS, DAS 2.0, mean ± SD of 3 patients, SD, read-out: AUC0-24h): 53400 ± 28000 ng·h/mL
AUC(0-inf) ([1]; human, in vivo, iv, patients on CMS infusion (300 mg CBA loading, 150 mg CBA maintenance), fourth dose, plasma, SPE LC-MS/MS, DAS 2.0, mean ± SD of 3 patients, SD): 53900 ± 44500 ng·h/mL
clearance ([1]; human, in vivo, iv, patients on CMS infusion (300 mg CBA loading, 150 mg CBA maintenance), fourth dose, plasma, SPE LC-MS/MS, DAS 2.0, mean ± SD of 3 patients, SD, read-out: CL (apparent total clearance) (converted)): 67.5 mL/min
MRT ([1]; human, in vivo, iv, patients on CMS infusion (300 mg CBA loading, 150 mg CBA maintenance), fourth dose, plasma, SPE LC-MS/MS, DAS 2.0, mean ± SD of 3 patients, SD, read-out: MRT0-∞ (mean residence time)): 15.4 ± 5.87 h
Vd ([1]; human, in vivo, iv, patients on CMS infusion (300 mg CBA loading, 150 mg CBA maintenance), fourth dose, plasma, SPE LC-MS/MS, DAS 2.0, mean ± SD of 3 patients, SD, read-out: Vz (apparent volume of distribution)): 47.5 ± 15.9 L
half-life ([1]; human, in vivo, iv, patients on CMS infusion (300 mg CBA loading, 150 mg CBA maintenance), fourth dose, plasma, SPE LC-MS/MS, DAS 2.0, mean ± SD of 3 patients, SD, read-out: t1/2 (elimination half-life) (converted)): 9.94 ± 4.72 h
Cmax ([1]; human, in vivo, iv, patients on CMS infusion (300 mg CBA loading, 150 mg CBA maintenance), fourth dose, plasma, SPE LC-MS/MS, mean ± SD of 3 patients, SD, read-out: Cmax): 3010 ± 1320 ng/mL
Tmax ([1]; human, in vivo, iv, patients on CMS infusion (300 mg CBA loading, 150 mg CBA maintenance), fourth dose, plasma, SPE LC-MS/MS, mean ± SD of 3 patients, SD, read-out: Tmax): 2.33 ± 0.58 h
time at which peak concentration (Cmax) was reached ([1]; in words, three patients, CMS infusion (1 h)): at 1-hour post-infusion
Css ([1]; patients on CMS infusion (300 mg CBA loading, 150 mg CBA maintenance), fourth dose, plasma, SPE LC-MS/MS, DAS 2.0, mean ± SD of 3 patients, SD): 2230 ± 1170 ng/mL
Cmin ([1]; patients on CMS infusion (300 mg CBA loading, 150 mg CBA maintenance), fourth dose, plasma, SPE LC-MS/MS, mean ± SD of 3 patients, SD): 1610 ± 1060 ng/mL
AUC0-24h ([1]; second of the three patients): 86050 ng·h/mL
AUC0-24h ([1]; third of the three patients): 36980 ng·h/mL
Tmax ([2]; healthy subjects): 2 h
half-life ([2]; healthy volunteers, ref Couet W et al., 31): 3.0 ± 0.6 h

Compound: CC[C@H](C)CCCCC(=O)N[C@@H](CCN)C(=O)N[C@H](C(=O)N[C@@H](CCN)C(=O)N[C@H]1CCNC(=O)[C@H]([C@@H](C)O)NC(=O)[C@H](CCN)NC(=O)[C@H](CCN)NC(=O)[C@H](CC(C)C)NC(=O)[C@@H](CC(C)C)NC(=O)[C@H](CCN)NC1=O)[C@@H](C)O [Colistin A, colistin A] (X1-[Dab]T[Dab][Dab][Dab][dL]L[Dab][Dab]T; lactam 4-C)
Processed sample In the sampler at 4 °C for 24 h [3, 8]: 100.74 ± 4.06%
Processed sample In the sampler at 4 °C for 24 h [3, 9]: 102.44 ± 1.43%
Frozen at −80 °C for 3 months ([4]; HQC 7.5 μg/mL): 101.24 ± 1.46%
Room temperature 24 h ([4]; HQC 7.5 μg/mL): 91.48 ± 3.06%
−80 °C freeze–thaw 3 times ([4]; HQC 7.5 μg/mL): 93.04 ± 1.97%
Frozen at −80 °C for 3 months ([4]; LQC 0.30 μg/mL): 98.31 ± 5.04%
Room temperature 24 h ([4]; LQC 0.30 μg/mL): 104.77 ± 4.59%
−80 °C freeze–thaw 3 times ([4]; LQC 0.30 μg/mL): 106.19 ± 2.48%

Compound: CC(C)CCCCC(=O)N[C@@H](CCN)C(=O)N[C@H](C(=O)N[C@@H](CCN)C(=O)N[C@H]1CCNC(=O)[C@H]([C@@H](C)O)NC(=O)[C@H](CCN)NC(=O)[C@H](CCN)NC(=O)[C@H](CC(C)C)NC(=O)[C@@H](CC(C)C)NC(=O)[C@H](CCN)NC1=O)[C@@H](C)O [Colistin B, colistin B] ({Heptanoyl(6-Me)}-[Dab]T[Dab][Dab][Dab][dL]L[Dab][Dab]T; lactam 4-C)
Processed sample In the sampler at 4 °C for 24 h [3, 8]: 106.46 ± 6.48%
Processed sample In the sampler at 4 °C for 24 h [3, 9]: 108.54 ± 3.07%
Frozen at −80 °C for 3 months ([4]; HQC 7.5 μg/mL): 98.76 ± 4.29%
Room temperature 24 h ([4]; HQC 7.5 μg/mL): 99.39 ± 1.70%
−80 °C freeze–thaw 3 times ([4]; HQC 7.5 μg/mL): 99.13 ± 6.46%
Frozen at −80 °C for 3 months ([4]; LQC 0.30 μg/mL): 109.29 ± 3.71%
Room temperature 24 h ([4]; LQC 0.30 μg/mL): 110.01 ± 3.95%
−80 °C freeze–thaw 3 times ([4]; LQC 0.30 μg/mL): 110.17 ± 4.65%
